The source made the active and inactive calls.
Legend:
Format in all cases: functional
[1] = molecular target: T1, Corticotropin-releasing factor receptor 2/Corticotropin-releasing factor-binding protein (Homo sapiens, UniProt P24387+Q13324); assay: Dose Response confirmation of uHTS hits for small molecule antagonists of the CRF-binding protein and CRF-R2 receptor complex.; conditions: read-out: IC50_Mean
T1 sequence (Q13324 whole entry): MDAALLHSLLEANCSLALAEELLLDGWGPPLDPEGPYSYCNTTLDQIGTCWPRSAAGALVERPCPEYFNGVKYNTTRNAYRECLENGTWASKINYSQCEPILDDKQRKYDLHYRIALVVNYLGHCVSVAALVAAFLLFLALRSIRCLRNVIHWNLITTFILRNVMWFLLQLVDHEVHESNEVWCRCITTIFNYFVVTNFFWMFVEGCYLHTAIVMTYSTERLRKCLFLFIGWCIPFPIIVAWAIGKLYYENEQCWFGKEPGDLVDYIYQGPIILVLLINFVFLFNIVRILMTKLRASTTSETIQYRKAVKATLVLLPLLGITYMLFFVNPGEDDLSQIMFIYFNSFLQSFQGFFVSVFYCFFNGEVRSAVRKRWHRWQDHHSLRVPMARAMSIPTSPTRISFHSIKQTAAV
T1 sequence (P24387 whole entry): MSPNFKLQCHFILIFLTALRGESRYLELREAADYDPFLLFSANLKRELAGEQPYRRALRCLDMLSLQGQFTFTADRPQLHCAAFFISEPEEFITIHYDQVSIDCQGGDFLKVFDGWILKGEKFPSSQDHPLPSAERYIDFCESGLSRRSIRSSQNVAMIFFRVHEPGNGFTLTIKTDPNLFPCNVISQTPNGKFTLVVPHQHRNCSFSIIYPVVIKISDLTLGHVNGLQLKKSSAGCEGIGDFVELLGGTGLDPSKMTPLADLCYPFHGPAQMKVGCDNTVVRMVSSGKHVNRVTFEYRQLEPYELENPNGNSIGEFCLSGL

[2] = molecular target: T1, Corticotropin-releasing factor receptor 2/Corticotropin-releasing factor-binding protein; assay: activators of CRF receptor 2 with binding protein – uHTS hits, confirmation (AID 602473); conditions: read-out: EC50_Mean
[3] = molecular target: T2, Polyadenylate-binding protein 1 (Homo sapiens, UniProt P11940); assay: PABP1 MLLE–PAM2 binding inhibitor potency, dose response, biochemical, fluorescence polarization, FITC-PAM2 peptide (AID 602259); conditions: read-out: IC50_Mean
[4] = molecular target: T2, Polyadenylate-binding protein 1; assay: PABP1 MLLE–PAM2 interaction inhibitors, dose response, miRNA deadenylation inhibitor project, biochemical, fluorescence polarization, Cy5-PAM2 peptide, secondary (AID 602260); conditions: read-out: IC50_Mean
[5] = molecular target: Genome polyprotein (dengue virus type 2, UniProt P29990); assay: Dengue-2 NS5 methyltransferase inhibitors, primary screen, biochemical, confirmation dose response (AID 588689)
[6] = THP-1 cell cytotoxicity, dose response, cytotoxicity control for non-replicating M. tuberculosis project (AID 489025)
[7] = molecular target: T3, Heat shock factor protein 1 (Mus musculus, UniProt P38532); assay: inhibition of MG132-induced HSE-luciferase signal, confirmation, cell-based, NIH3T3, luminescence, dose retest (AID 2382);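 note: NIH3T3 fibroblasts with HSF1-driven luciferase reporter stressed by proteasome inhibitor MG132; luminescence from HSF1-driven luciferase expression after 8 hours of MG132 stress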
T3 sequence (P38532 whole entry): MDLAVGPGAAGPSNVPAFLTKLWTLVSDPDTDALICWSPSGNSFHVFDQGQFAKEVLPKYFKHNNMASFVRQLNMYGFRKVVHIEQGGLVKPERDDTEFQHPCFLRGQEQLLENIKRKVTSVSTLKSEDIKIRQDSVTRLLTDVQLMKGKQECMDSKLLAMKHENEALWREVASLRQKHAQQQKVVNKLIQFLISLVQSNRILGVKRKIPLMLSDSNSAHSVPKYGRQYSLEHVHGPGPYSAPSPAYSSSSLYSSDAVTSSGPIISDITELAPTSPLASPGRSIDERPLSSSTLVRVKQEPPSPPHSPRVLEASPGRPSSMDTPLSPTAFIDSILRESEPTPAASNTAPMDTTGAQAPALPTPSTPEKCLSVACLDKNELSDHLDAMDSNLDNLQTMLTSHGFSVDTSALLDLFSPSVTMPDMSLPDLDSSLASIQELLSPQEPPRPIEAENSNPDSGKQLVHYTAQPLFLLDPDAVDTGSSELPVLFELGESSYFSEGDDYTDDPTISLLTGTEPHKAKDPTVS

[8] = microbe, parasite or virus in culture; conditions: Mycobacterium tuberculosis
[9] = molecular target: T4, Protein RecA (Mycobacterium tuberculosis, UniProt P9WHJ3); assay: Fluorescence Cell-Free Homogeneous Dose Retest to Identify Inhibitors of RecA-Intein Splicing Activity. [Related pubchem assays (depositor defined):AID2097, AID2223, AID489010, AID492950]
T4 sequence (P9WHJ3 whole entry): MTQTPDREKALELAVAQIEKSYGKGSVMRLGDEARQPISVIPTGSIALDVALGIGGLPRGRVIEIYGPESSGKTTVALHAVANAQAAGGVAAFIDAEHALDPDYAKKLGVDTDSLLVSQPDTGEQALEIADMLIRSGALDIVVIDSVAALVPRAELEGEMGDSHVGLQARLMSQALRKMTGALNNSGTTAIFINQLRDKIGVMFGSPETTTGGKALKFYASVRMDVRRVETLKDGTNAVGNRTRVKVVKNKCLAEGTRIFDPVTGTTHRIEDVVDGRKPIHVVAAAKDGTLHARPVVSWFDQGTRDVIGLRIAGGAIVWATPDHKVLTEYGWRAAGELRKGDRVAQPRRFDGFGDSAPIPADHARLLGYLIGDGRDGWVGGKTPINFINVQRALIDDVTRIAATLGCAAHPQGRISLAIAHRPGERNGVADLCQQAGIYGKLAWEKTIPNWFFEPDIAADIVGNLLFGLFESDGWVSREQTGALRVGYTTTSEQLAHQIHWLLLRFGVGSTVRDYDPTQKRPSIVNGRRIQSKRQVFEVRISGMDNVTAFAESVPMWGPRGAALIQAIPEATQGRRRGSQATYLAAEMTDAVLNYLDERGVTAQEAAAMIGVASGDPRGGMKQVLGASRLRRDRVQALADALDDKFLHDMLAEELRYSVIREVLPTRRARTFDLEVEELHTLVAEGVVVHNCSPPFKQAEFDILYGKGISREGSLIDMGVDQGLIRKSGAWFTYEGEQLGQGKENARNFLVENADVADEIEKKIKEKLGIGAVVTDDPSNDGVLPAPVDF

[10] = molecular target: T5, Replicative DNA helicase DnaB (Mycobacterium tuberculosis, UniProt P9WMR3); assay: DnaB intein splicing inhibitors, dose response, biochemical, cell-free fluorescence (AID 449749)
T5 sequence (P9WMR3 whole entry): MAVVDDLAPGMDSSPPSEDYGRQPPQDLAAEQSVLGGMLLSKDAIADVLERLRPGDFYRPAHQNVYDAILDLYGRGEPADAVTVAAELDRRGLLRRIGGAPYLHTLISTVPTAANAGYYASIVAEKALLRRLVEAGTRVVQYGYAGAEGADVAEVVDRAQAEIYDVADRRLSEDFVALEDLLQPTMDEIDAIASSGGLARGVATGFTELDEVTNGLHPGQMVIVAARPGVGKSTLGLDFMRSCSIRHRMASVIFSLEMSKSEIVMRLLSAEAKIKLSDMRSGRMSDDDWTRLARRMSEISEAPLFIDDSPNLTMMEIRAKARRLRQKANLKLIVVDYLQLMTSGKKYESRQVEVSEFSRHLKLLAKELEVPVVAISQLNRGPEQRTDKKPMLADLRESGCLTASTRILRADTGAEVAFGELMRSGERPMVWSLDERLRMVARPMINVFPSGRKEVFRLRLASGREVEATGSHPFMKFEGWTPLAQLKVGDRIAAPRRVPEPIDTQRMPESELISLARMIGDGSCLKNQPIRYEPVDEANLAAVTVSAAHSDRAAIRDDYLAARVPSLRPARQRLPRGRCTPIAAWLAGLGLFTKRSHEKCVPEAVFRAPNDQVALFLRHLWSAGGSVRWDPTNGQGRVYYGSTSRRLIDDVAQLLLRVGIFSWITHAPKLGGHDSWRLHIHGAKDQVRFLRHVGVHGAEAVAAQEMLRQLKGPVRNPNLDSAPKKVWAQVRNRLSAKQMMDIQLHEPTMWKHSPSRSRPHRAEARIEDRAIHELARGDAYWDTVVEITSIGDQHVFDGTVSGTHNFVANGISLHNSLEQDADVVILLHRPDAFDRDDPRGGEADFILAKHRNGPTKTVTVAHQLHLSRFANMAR

T2 sequence (P11940 whole entry): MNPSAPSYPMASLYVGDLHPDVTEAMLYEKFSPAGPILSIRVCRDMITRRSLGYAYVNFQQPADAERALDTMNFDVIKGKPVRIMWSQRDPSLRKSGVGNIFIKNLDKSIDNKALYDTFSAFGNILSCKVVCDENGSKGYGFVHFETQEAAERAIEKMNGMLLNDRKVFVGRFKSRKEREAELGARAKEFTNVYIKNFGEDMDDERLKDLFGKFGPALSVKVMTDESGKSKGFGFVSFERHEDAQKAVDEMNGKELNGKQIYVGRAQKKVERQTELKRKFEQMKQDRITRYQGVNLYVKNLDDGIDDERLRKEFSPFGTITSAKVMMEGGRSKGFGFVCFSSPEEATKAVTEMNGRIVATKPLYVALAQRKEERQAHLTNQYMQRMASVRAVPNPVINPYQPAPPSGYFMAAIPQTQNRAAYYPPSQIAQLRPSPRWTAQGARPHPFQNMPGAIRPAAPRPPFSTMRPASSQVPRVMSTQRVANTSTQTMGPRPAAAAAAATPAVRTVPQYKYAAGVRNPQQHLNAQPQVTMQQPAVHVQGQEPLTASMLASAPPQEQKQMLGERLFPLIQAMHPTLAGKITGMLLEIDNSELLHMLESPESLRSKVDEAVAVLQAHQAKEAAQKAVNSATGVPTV
Sequence of Genome polyprotein (P29990 2492-3391 limits assumed): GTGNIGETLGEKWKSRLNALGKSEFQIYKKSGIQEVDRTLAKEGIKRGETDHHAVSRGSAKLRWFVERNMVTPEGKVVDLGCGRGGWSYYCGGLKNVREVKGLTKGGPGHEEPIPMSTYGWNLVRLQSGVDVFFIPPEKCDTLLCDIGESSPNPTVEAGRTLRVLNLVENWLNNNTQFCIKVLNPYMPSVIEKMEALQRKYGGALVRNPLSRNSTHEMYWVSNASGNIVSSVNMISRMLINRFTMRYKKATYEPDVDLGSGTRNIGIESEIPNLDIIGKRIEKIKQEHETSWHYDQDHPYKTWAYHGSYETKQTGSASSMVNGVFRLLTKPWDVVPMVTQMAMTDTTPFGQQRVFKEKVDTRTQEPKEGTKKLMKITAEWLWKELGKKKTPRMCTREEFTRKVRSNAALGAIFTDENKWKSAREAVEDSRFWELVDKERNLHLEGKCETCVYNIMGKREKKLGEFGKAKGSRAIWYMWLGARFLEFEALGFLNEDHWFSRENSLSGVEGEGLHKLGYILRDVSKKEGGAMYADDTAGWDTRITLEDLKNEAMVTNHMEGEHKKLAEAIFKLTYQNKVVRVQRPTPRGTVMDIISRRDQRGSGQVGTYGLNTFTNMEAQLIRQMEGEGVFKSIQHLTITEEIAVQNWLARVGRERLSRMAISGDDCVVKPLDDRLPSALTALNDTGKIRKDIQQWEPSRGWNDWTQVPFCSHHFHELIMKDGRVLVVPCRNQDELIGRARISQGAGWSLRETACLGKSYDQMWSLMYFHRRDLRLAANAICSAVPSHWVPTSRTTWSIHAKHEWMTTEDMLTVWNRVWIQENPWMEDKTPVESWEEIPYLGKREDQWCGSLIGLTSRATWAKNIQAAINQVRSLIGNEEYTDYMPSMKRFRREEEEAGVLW

Row | Compound | IC50 [1] | EC50 [2] | also measured
1 | COC(CNc1ncnc2c1cnn2C)OC | > 47.1 µM (inactive) | > 53 µM (inactive) | 
2 | COc1ccc(C(=O)NC(=S)Nc2cccc(NC(=O)c3ccco3)c2)cc1[N+](=O)[O-] |  |  | IC50 [3]: > 66 µM (inactive); IC50 [4]: > 66 µM (inactive)
3 | COc1cccc(/C=C2\SC(=S)N(C(Cc3ccccc3)C(=O)O)C2=O)c1 (stereo not drawn) |  |  | IC50 [5]: 44.4 µM (active)
4 | CN(CC1CCOCC1)C(=O)CC1C(=O)NCCN1Cc1ccc(Cl)c(F)c1 (stereo not drawn) | > 47.1 µM (inactive) | > 53 µM (inactive) | 
5 | CCN(c1ccccc1)S(=O)(=O)c1ccc(NC(=O)c2ccco2)cc1 | > 47.1 µM (inactive) | > 53 µM (inactive) | 
6 | CC(SC1=NCCS1)C(=O)Nc1nnc(-c2ccc(Br)cc2)s1 (stereo not drawn) | > 47.1 µM (inactive) | > 53 µM (inactive) | 
7 | COc1ccc(C2=NN=C(c3ccco3)Nc3ccc(F)cc32)cc1 | > 47.1 µM (inactive) | > 53 µM (inactive) | 
8 | COc1ccc(NC(=O)CCCC2CCCCC2)cc1S(=O)(=O)N1CCCCC1 | > 47.1 µM (inactive) | > 53 µM (inactive) | 
9 | CCOC(=O)C1C(C)=CC(=O)CC1c1ccco1 (stereo not drawn) | > 47.1 µM (inactive) | > 53 µM (inactive) | 
10 | CCCn1c(O)c(N=NC(=O)c2ccco2)c2ccccc21 |  |  | CC50 [6]: > 40 µM (active); EC50 [7]: > 195 µM (not active); CC50 [8]: > 40 µM (active)
11 | CCOC(=O)CSc1nc2c(c(=O)[nH]c(=O)n2C)n1C/C=C(/C)Cl |  |  | IC50 [3]: > 66 µM (inactive); IC50 [4]: > 66 µM (inactive)
12 | CCOC(=O)c1c(N)sc2c1CCS(=O)(=O)C2 |  |  | IC50 [3]: > 66 µM (inactive); IC50 [4]: > 66 µM (inactive)
13 | CC1=NN(c2ccccc2)C(=O)/C1=C/c1cccs1 |  |  | EC50 [9]: 4.53 µM (active); AC50 [10]: 4.26 µM (active); IC50 [5]: 46.8 µM (active)
14 | Cc1cc(C(C2C(=O)CC(C)(C)CC2=O)C2C(=O)CC(C)(C)CC2=O)cc(C)c1OC(F)F |  |  | IC50 [5]: 43.5 µM (active)
